Assay results: patent US20240156790A1, “COMPOUNDS, COMPOSITIONS, AND METHODS FOR MODULATING FERROPTOSIS AND TREATING EXCITOTOXIC DISORDERS” (THE TRUSTEES OF COLUMBIA UNIVERSITY IN THE CITY OF NEW YORK, priority 2018, published 2024)
Entries after “also recorded” stand apart in the source; their conditions may differ.

Legend:
[1] = test system: modified bacteria sensitive to mutagenic agents; assay type: cell-based; details: […] to 82 μM, 3 days
Method: The AMES test uses modified bacteria sensitive to mutagenic agents to assess a compound's ability to cause direct DNA mutations. If the tested drug can induce reverse mutational events, it will cause bacteria to revert back to a prototrophic state and grow on media lacking selected nutrients. We tested TH-2-31, TH-4-55-2, and TH-4-67 using the AMES test. CFI-4082 was also included in the test for comparison. Bacteria strains were incubated under exposure to different concentrations of tested compounds for 3 days and collected 144 data points of mutation status at each concentration. The concentration ranged from 5.1 μM to 82 μM, which is the highest local organ concentration of our compounds in the above mice study (FIG. 12).
The Ames test uses modified bacteria sensitive to mutagenic agents to assess a compound's ability to cause direct DNA mutations. If a tested compound can induce revert mutational events, it will cause bacteria to revert back to a prototrophic state and grow on media lacking selected nutrients. We evaluated TH-2-31, TH-4-55-2, and TH-4-67 in the Ames test. We also included PHB4082 in this test. Bacteria strains were incubated under exposure to different concentrations of tested compounds for three days and 144 data points were collected on mutation status across a concentration range from 5.1 μM to 82 μM, which was the highest local organ concentration observed in previous mouse studies.

[2] = test system: R6/2 mice; assay: 45-day drinking water and PO study of ferrostatins in R6/2 mice (weight, survival, Rotarod, Catwalk, LC/MS); assay type: in vivo
Method: Ferrostatins and 42 μM Citric acid were dissolved in 5% DMSO, 5% ethanol, and 90% PBS rendering a final concentration of 0.29 mg/mL of each ferrostatin in drinking water. The mice drink ˜2 mL water per day, and the resulting dosage was around 20-30 mg/kg/day. R6/2 mice at ˜6-7 weeks of age were treated via drinking water and PO at 20 mg/kg. Mice were weighed daily, the weight recorded, and the change in body weight compared to the baseline, pre-injection weight was calculated. Any mouse that lost more than 20% of its baseline body weight for three consecutive days was euthanized prior to the completion of the study. Mice were euthanized by CO2 asphyxiation for 3 min after administration. Approximately 0.5 mL of blood was collected via cardiac puncture and immediately put in K3 EDTA microtubes and kept on ice. Brains were harvested, placed in Eppendorf tubes, and frozen on dry ice. Blood samples were centrifuged for 10 min at 2,100×g at 4° C., then plasma was transferred to a clean tube and frozen on dry ice.
Brain samples were weighed and placed in hard tissue homogenizing tubes. Two volume of HPLC grade methanol was added to make a solution and homogenized using the Omni Bead Ruptor 4 at speed 5 for two 30-second runs. The product was aliquoted and diluted by adding 900 μL HPLC grade ice-cold methanol. After centrifugation for 20 mins at 14,000×g at 4° C., supernatant was collected in a clean vial and dried by vacuum centrifugation (GeneVac).
Prior to LC-MS analysis, the samples were resuspended in 100 μL methanol and centrifuged for 5 minutes at 14,000×g at 4° C. The supernatant was analyzed via SYNAPT High Resolution Mass Spectrometer.
Rotarod “Linear Incline” experiment was performed with 11- to 12-week-old R6/2 mice at Day 25 with a rotations per minute (RPM) ramp over a 300s duration, start speed of 5 RPM, and max speed of 40 RPM. Mice were acclimated to testing room for 30 minutes prior to experimentation. Latency to fall was recorded in seconds for each mouse, and lanes were cleaned with 70% ethanol between mice.
The Catwalk apparatus (Noldus Information Technology, Leesburg, VA) consisted of an illuminated walled glass walkway (130 cm×10 cm) and a high-speed camera underneath. Mice were allowed 30 minutes to acclimate to the testing room, then behavioral task was performed with 11- to 12-week-old R6/2 mice on Day 25. Mice were placed on the glass walkway and allowed to ambulate freely across the runway towards the goal box at the end of the walkway. A goal box blocked the other end of the walkway, forcing the mouse to return to the entryway. Each mouse completed Catwalk runs until three compliant runs (fluent crossings without stopping/hesitation), were detected and verified, running for as long as needed to do so. Behavioral measures were calculated using Noldus Gait Analysis Software, and pairing and further comparisons were done using RM one-way ANOVAs.
The pharmacokinetic properties of TH-4-55-2 were initially assessed in vivo, focusing on its BBB distribution. Subsequent investigations involved TH-4-67 and TH-2-31. […] This regimen continued for 45 days, during which changes in body weight were monitored (FIG. 29A). Mouse body weights that fell under 20% of baseline measurements were sacrificed, while spontaneous deaths over the course of the study were monitored (FIG. 29B). Motor coordination was assessed via Rotarod behavior measurements (FIG. 30), and gait analysis was conducted using CatWalk (FIGS. 31A-31B).

Cc1noc(-c2cnc(NC3CCCCC3)c(NC3CCCCC3)c2)n1 [TH-2-31, N^2,N^3-dicyclohexyl-5-(3-methyl-1,2,4-oxadiazol-5-yl)pyridine-2,3-diamine]
mutagenic potential (Ames test result) [1]: none of the compounds had mutagenic potential | Catwalk gait: Base of Support (BOS) ([2]; PO, Day 25): significantly worse BOS compared to Vehicle; also recorded: significantly worse performance

Cc1noc(-c2cnc(NC3CCCC3)c(NC3CCCC3)c2)n1 [TH-4-67, N^2,N^3-dicyclopentyl-5-(3-methyl-1,2,4-oxadiazol-5-yl)pyridine-2,3-diamine]
mutagenic potential (Ames test result) [1]: none of the compounds had mutagenic potential | Catwalk gait: Base of Support (BOS) ([2]; PO, Day 25): significant decrease in Base of Support (BOS); also recorded: significant improvement of BOS in the hind paws of least coordinated mice | Catwalk gait: Cadence ([2]; PO, Day 25, Best performing mice): the leading compound among this group

CCC(CC)Nc1cc(-c2nc(C)no2)cnc1NC1CCCCC1 [TH-4-55-2, N^2-cyclohexyl-5-(3-methyl-1,2,4-oxadiazol-5-yl)-N^3-(pentan-3-yl)pyridine-2,3-diamine]
mutagenic potential (Ames test result) [1]: none of the compounds had mutagenic potential | Rotarod latency to fall ([2]; PO 20 mg/kg, Day 25, 20 mg/kg): consistently scored higher compared to control; also recorded: consistently higher mean latency to fall across trials compared to control | accumulation in brain over plasma ([2]; PO and drinking water, 45-day course): preferentially accumulated in the brain over plasma for both routes of administration
